The results in this text go back to patent US7968573B2, “Hydrazide compound and pesticidal use of the same” (Sumitomo Chemical Company, Limited, priority 2008, dated 2011).

The first assay relates to cotton aphids. Briefly: Test Example 2: spray on cucumber infested with cotton aphids. It counts as in vivo, Aphis gossypii. The note with it: 500 ppm spray solution, 20 ml/cup on cucumber with about 30 cotton aphids; counted six days after spraying. The procedure: At the same time, cucumber was planted in a polyethylene cup, and was grown until the first true leaf was developed. About 30 cotton aphids were put on the cucumber. One day after, the test spray solution as described above was sprayed in an amount of 20 ml/cup on the cucumber. Six days after spraying, the number of cotton aphids was counted, and a controlling value was calculated by the following equation: Controlling value(%)={1−(Cb×Tai)/(Cai×Tb)}×100 wherein, Cb: the number of insects in a non-treated section before treatment Cai: the number of insects in a non-treated section on observation Tb: the number of insects in a treated-section before treatment Tai: the number of insects in a treated-section on observation. Furthermore, the same way as Test Example 2, test spray solution of the comparative compound of the formula: […]
`COC(=O)CNC(=O)c1cccc(C)c1NC(=O)c1cc(C(F)(F)F)nn1-c1ncccc1Cl`: the Controlling value entry is recorded as “less than 30%”.

For another assay, the system named is silver leaf whitefly. The assay is described as follows: Test Example 6: spray on cabbage with hatched larvae of silver leaf whitefly. It counts as in vivo. The note with it: Bemisia argentifolii, 168 h; 500 ppm spray solution, 20 ml/cup on cabbage with hatched larvae of silver leaf whitefly; counted seven days after spraying; read-out: Controlling value. The procedure: At the same time, cabbage was planted in a polyethylene cup, and grown until the first true leaf was developed. All leaves excluding the first true leaf were cut off. On the first true leaf, imagoes of silver leaf whitefly were released and allowed to lay eggs for about 24 hours. The cabbage was retained in a greenhouse for 8 days. When larvae hatched from the laid eggs, the test spray solution as described above was sprayed in an amount of 20 ml/cup to the cabbage. Seven days after spraying, the number of larvae surviving on the cabbage was counted, and a controlling value was calculated by the following equation: Controlling value(%)={1−(Cb×Tai)/(Cai×Tb)}×100 wherein, Cb: the number of worms in a non-treated section before treatment Cai: the number of worms in a non-treated section on observation Tb: the number of worms in a treated-section before treatment Tai: the number of worms in a treated-section on observation.
For `COC(=O)NNC(=O)c1cc(Cl)cc(C)c1NC(=O)c1cc(Cl)cn1-c1ncccc1Cl` [(153)], the pest or weed control at 500 ppm was ≥ 90%. On the same count and under the same terms, next, `COC(=O)NNC(=O)c1cc(Cl)cc(C)c1NC(=O)c1cc(Br)cn1-c1ncccc1Cl` [(93)]: ≥ 90%; `COCCOC(=O)N(NC(=O)c1cc(Cl)cc(C)c1NC(=O)c1cc(Br)nn1-c1ncccc1Cl)C(=O)OC` [(215)]: ≥ 90%. Still for that read-out and setting: next, `COC(=O)N(C)N(C)C(=O)c1cc(Cl)cc(C)c1NC(=O)c1cc(Br)nn1-c1ncccc1Cl` [(119)]: ≥ 90%; `COC(=O)N(C)N(C)C(=O)c1cc(Br)cc(Br)c1NC(=O)c1cc(Br)nn1-c1ncccc1Cl` [(204)]: ≥ 90%. In the case of `COC(=O)N(C)N(C)C(=O)c1cc(C#N)cc(C)c1NC(=O)c1cc(Br)nn1-c1ncccc1Cl` [(144)], the pest or weed control at 500 ppm was ≥ 90%. Still for that read-out and setting: next, `COC(=O)N(NC(=O)c1cc(Cl)cc(Br)c1NC(=O)c1cc(Br)nn1-c1ncccc1Cl)C(=O)OC` [(107)]: ≥ 90%. On to `Cc1cc(Cl)cc(C(=O)NNC(=O)OCCF)c1NC(=O)c1cc(Br)nn1-c1ncccc1Cl` [(221)], for which the pest or weed control at 500 ppm is ≥ 90%. On to `COC(=O)N(C)NC(=O)c1cc(Cl)cc(C)c1NC(=O)c1cc(Br)nn1-c1ncccc1Cl` [(114)], for which the pest or weed control at 500 ppm is ≥ 90%. Take `COC(=O)NNC(=O)c1cc(Cl)cc(Br)c1NC(=O)c1cc(C(F)(F)F)nn1-c1ncccc1Cl` [(59)]: the pest or weed control at 500 ppm is ≥ 90%. Turning to `COC(=O)N(NC(=O)c1cc(Cl)cc(C)c1NC(=O)c1cc(Br)cn1-c1ncccc1Cl)C(=O)OC` [(158)], the pest or weed control at 500 ppm was ≥ 90%. Same read-out and setting: next, `CCOC(=O)NNC(=O)c1cccc(C)c1NC(=O)c1cc(C(F)(F)F)nn1-c1ncccc1Cl` [(32)]: ≥ 90%; `COC(=O)NNC(=O)c1cc(Cl)cc(C)c1NC(=O)c1ccc(Cl)n1-c1ncccc1Cl` [(129)]: ≥ 90%. Still for that read-out and setting: the figure for `COC(=O)N(C)N(C)C(=O)c1cc(Cl)cc(Cl)c1NC(=O)c1cc(Br)nn1-c1ncccc1Cl` [(231)] is ≥ 90%; for `COC(=O)NNC(=O)c1cc(Cl)cc(C)c1NC(=O)c1cc(C(F)(F)F)nn1-c1ncccc1Cl` [(5)] it is ≥ 90%; for `COC(=O)NNC(=O)c1cc(Cl)cc(Cl)c1NC(=O)c1cc(C(F)(F)F)nn1-c1ncccc1Cl` [(56)] it is ≥ 90%. For `COC(=O)N(C)NC(=O)c1cc(Br)cc(Br)c1NC(=O)c1cc(Br)cn1-c1ncccc1Cl` [(209)], the pest or weed control at 500 ppm is ≥ 90%. Take `C#CCOC(=O)NNC(=O)c1cc(Br)cc(Br)c1NC(=O)c1cc(Br)cn1-c1ncccc1Cl` [(223)]: the pest or weed control at 500 ppm is ≥ 90%. Consider `COC(=O)NNC(=O)c1cc(Cl)cc(C)c1NC(=O)c1cc(Br)c(Br)n1-c1ncccc1Cl` [(127)], for which the pest or weed control at 500 ppm is ≥ 90%.

For the compound `COC(=O)NNC(=O)c1cc(Cl)cc(C)c1NC(=O)c1cc(Br)nn1-c1ncccc1Cl` [(34)], the pest or weed control at 500 ppm is ≥ 90%. Take `COC(=O)N(NC(=O)c1cc(Br)cc(Br)c1NC(=O)c1cc(Br)cn1-c1ncccc1Cl)C(=O)OC` [(201)]: the pest or weed control at 500 ppm was ≥ 90%. Same read-out and setting: next, `COC(=O)NNC(=O)c1cc(Br)cc(Br)c1NC(=O)c1ccc(S(C)(=O)=O)n1-c1ncccc1Cl` [(226)]: ≥ 90%.

The next assay relates to Frankliniella occidentalis. The assay is described as follows: Test Example 5: sprayed cucumber leaf, larvae of Frankliniella occidentalis. It counts as in vivo. The note with it: 168 h; 500 ppm spray solution, 20 ml/cup on cucumber, cut first true leaf; 20 larvae of Frankliniella occidentalis; counted seven days after spraying; read-out: Controlling value. The procedure:
At the same time, cucumber was planted in a polyethylene cup, and was grown until the first true leaf was developed. The test spray solution as described above was sprayed in an amount of 20 ml/cup on the cucumber. After the drug solution sprayed on the cucumber was dried, the first true leaf was cut and then placed on a filter paper (diameter: 70 mm) containing water in a polyethylene cup (diameter: 110 mm). On the cucumber leaf, 20 larvae of Frankliniella occidentalis were released, and the polyethylene cup was capped. Seven days after spraying, the number of insects surviving on the cucumber leaf was counted, and a controlling value was calculated by the following equation: Controlling value(%)={1−(Cb×Tai)/(Cai×Tb)}×100 wherein, Cb: the number of insects in a non-treated section before treatment Cai: the number of insects in a non-treated section on observation Tb: the number of insects in a treated-section before treatment Tai: the number of insects in a treated-section on observation.
For the compound `COC(=O)NNC(=O)c1ccc(Cl)c(C)c1NC(=O)c1cc(Br)nn1-c1ncccc1Cl` [(85)], the pest or weed control at 500 ppm is ≥ 90%.

In the case of `COC(=O)N(NC(=O)c1cc(Cl)cc(C)c1NC(=O)c1cc(Cl)cn1-c1ncccc1Cl)C(=O)OC` [(159)], the pest or weed control at 500 ppm was ≥ 90%.

`COC(=O)NNC(=O)c1cc2ccccc2c(Br)c1NC(=O)c1cc(Br)nn1-c1ncccc1Cl` [(140)]: the pest or weed control at 500 ppm is ≥ 90%.

As to `COC(=O)NNC(=O)c1cc([N+](=O)[O-])cc(C)c1NC(=O)c1cc(Br)nn1-c1ncccc1Cl` [(183)], the pest or weed control at 500 ppm is ≥ 90%. Consider `COC(=O)NNC(=O)c1cc(Cl)cc(C)c1NC(=O)c1cc(SC)nn1-c1ncccc1Cl` [(99)], for which the pest or weed control at 500 ppm is ≥ 90%.

On to `CN(C)C(=O)NN(C)C(=O)c1cc(Br)cc(Br)c1NC(=O)c1cc(Br)cn1-c1ncccc1Cl` [(206)], for which the pest or weed control at 500 ppm was ≥ 90%.

As to `COC(=O)NNC(=O)c1cc(Cl)cc(C)c1NC(=O)c1cc(Br)cn1-c1ccncc1Cl` [(187)], the pest or weed control at 500 ppm is ≥ 90%. Regarding `Cc1cc(Cl)cc(C(=O)NNC=O)c1NC(=O)c1cc(C(F)(F)F)nn1-c1ncccc1Cl` [(17)], the pest or weed control at 500 ppm is ≥ 90%. On the same count and under the same terms, the figure for `COC(=O)N(C)N(C)C(=O)c1cc(Cl)cc(Cl)c1NC(=O)c1cc(Br)nn1-c1ncccc1Cl` [(231)] is ≥ 90%; for `COC(=O)N(NC(=O)c1cc(Cl)cc(C)c1NC(=O)c1cc(Cl)c(Cl)n1-c1ncccc1Cl)C(=O)OC` [(167)] it is ≥ 90%. Same read-out and setting: the figure for `COC(=O)NNC(=O)c1cc(Br)cc(Br)c1NC(=O)c1ccc(SC)n1-c1ncccc1Cl` [(227)] is ≥ 90%; for `COC(=O)NNC(=O)c1c(Cl)ccc(C)c1NC(=O)c1cc(Br)nn1-c1ncccc1Cl` [(88)] it is ≥ 90%.

In the case of `COC(=O)NNC(=O)c1cc(Cl)cc(I)c1NC(=O)c1cc(Br)nn1-c1ncccc1Cl` [(79)], the pest or weed control at 500 ppm is ≥ 90%. Still for that read-out and setting: the figure for `CSC(=O)NNC(=O)c1cc(Cl)cc(C)c1NC(=O)c1cc(C(F)(F)F)nn1-c1ncccc1Cl` [(29)] is ≥ 90%; for `COC(=O)NNC(=O)c1cccc(C(F)(F)F)c1NC(=O)c1cc(Br)nn1-c1ncccc1Cl` [(81)] it is ≥ 90%; for `COC(=O)NNC(=O)c1cc(Br)cc(Br)c1NC(=O)c1ccc(S(C)(=O)=O)n1-c1ncccc1Cl` [(226)] it is ≥ 90%.

Take `CC(=O)NNC(=O)c1cc(Cl)cc(C)c1NC(=O)c1cc(C(F)(F)F)nn1-c1ncccc1Cl` [(27)]: the pest or weed control at 500 ppm is ≥ 90%.
